Assay results published in patent EP0059983B1, “Substituted biphenyl compounds for use as a medicament” (THE WELLCOME FOUNDATION LIMITED, priority 1981, dated 1982).

Key:
[1] = test system: hypercholesterolemic male rat; experiment: Inhibition of dietary induced hypercholesterolemia in male rats (serum lipids); format: in vivo; design: key to Cholesterol lowering / Triglyceride lowering: In = Inactive at dose tested; A = Activity> clofibrate; M = Activity≤ clofibrate; settings: for Cholesterol lowering / Triglyceride lowering: rats, efficacy compared to clofibrate, dose not given; for % change in serum from control HDL: HDL cholesterol; for % change in serum from control HDL / % change in serum from control VLDL & LDL / % change in serum from control Cholesterol / % change in serum from control Triglyceride: male rats, oral; for % change in serum from control VLDL & LDL: VLDL & LDL cholesterol (difference between total and HDL cholesterol); for % change in serum from control Cholesterol / % change in serum from control Triglyceride: twice daily 3 days and once on day 4
Protocol: Hypercholesterolemia was produced in male rats after 3 days in a diet of 0.4% cholesterol and 0.2% sodium cholate. Each group contained 4 rats. Compounds tested were given orally twice daily for 3 days and once on day 4. Control animals received the vehicle, methyl cellulose. The cholesterol-containing diet and compound treatment were started at the same time. Animals were bled before dietary and compound treatment and 3 hr after the last dose of compound on day 4. All bleedings were after a 4 hr fast. Total serum cholesterol, triglyceride and high density lipoprotein (HDL) cholesterol determined by the procedure and test kit supplied by Dow Diagnostics (Trademark of the Dow Chemical Co. Laboratories, Indianapolis, IN). Very low and low density lipoprotein (VLDL & LDL) cholesterol were determined by the difference between total and HDL cholesterol.
By the method of Example 5 various compounds of formula (IA) were assessed for their ability to reduce cholesterol and triglyceride levels in rats. The compounds were compared in efficacy to clofibrate.

rats = experiment: Oral toxicity in rats; format: in vivo; settings: oral administration to rats at upto 1 g/kg bodyweight

O=C(O)c1ccccc1-c1ccc(Cl)cc1 [Cl, 2-(4-Chlorophenyl)-benzoic acid] was tested, and the Cholesterol lowering [1] was “M” and the Triglyceride lowering [1] was “In”.

With Cc1ccc(-c2ccccc2C(=O)O)cc1 [CH3, 2-(4-Methylphenyl)-benzoic acid] the Cholesterol lowering [1] was “M” and the Triglyceride lowering [1] was “M”.

O=C(O)c1ccccc1-c1ccc(C(F)(F)F)cc1 [IA(R=CF3), 2-(4-trifluoromethylphenyl)benzoic acid] was tested, and the deaths (rats) was “no deaths were observed”, the “% change in serum from control HDL” value ([1]; dose 25 mg/kg/day) was −6% and the “% change in serum from control HDL” value ([1]; dose 50 mg/kg/day) was “+10%”. The “% change in serum from control HDL” value ([1]; dose 150 mg/kg/day) was −15%, the “% change in serum from control VLDL & LDL” value ([1]; dose 25 mg/kg/day) was −46% and the “% change in serum from control VLDL & LDL” value ([1]; dose 50 mg/kg/day) was −64%. The “% change in serum from control VLDL & LDL” value ([1]; dose 150 mg/kg/day) was −52%, the “% change in serum from control Cholesterol” value ([1]; dose 25 mg/kg/day) was −40% and the “% change in serum from control Triglyceride” value ([1]; dose 25 mg/kg/day) was −43%. For the same compound, the “% change in serum from control Cholesterol” value ([1]; dose 50 mg/kg/day) was −56%, the “% change in serum from control Triglyceride” value ([1]; dose 50 mg/kg/day) was −53% and the “% change in serum from control Cholesterol” value ([1]; dose 100 mg/kg/day) was −51%. For the same compound, the “% change in serum from control Triglyceride” value ([1]; dose 100 mg/kg/day) was −57%, the “% change in serum from control Cholesterol” value ([1]; dose 150 mg/kg/day) was −40% and the “% change in serum from control Triglyceride” value ([1]; dose 150 mg/kg/day) was −60%. The Cholesterol lowering [1] was “A” and the Triglyceride lowering [1] was “A”.

CCCCc1ccc(-c2ccccc2C(=O)O)cc1 [n C4H9, 2-(4-n-butylphenyl)benzoic acid] was tested, and the Cholesterol lowering [1] was “A” and the Triglyceride lowering [1] was “A”.

With O=C(O)c1ccccc1-c1ccc(F)cc1 [F, 2-(4-Fluorophenyl)-benzoic acid] the Cholesterol lowering [1] was “In” and the Triglyceride lowering [1] was “M”.

CCc1ccc(-c2ccccc2C(=O)O)cc1 [Example C2H5, 2-(4-Ethylphenyl)-benzoic acid] was tested, and the Cholesterol lowering [1] was “A” and the Triglyceride lowering [1] was “A”.

With CC(C)(C)c1ccc(-c2ccccc2C(=O)O)cc1 [t C4H9, 2-(4-t-Butylphenyl)-benzoic acid] the Cholesterol lowering [1] was “M” and the Triglyceride lowering [1] was “A”.

For CCOC(=O)C(C)(C)Oc1ccc(Cl)cc1 [Clofibrate, reference compound], the “% change in serum from control HDL” value ([1]; dose 100 mg/kg/day) was −21%, the “% change in serum from control HDL” value ([1]; dose 200 mg/kg/day) was −28% and the “% change in serum from control VLDL & LDL” value ([1]; dose 100 mg/kg/day) was 0%. The “% change in serum from control VLDL & LDL” value ([1]; dose 200 mg/kg/day) was −29%, the “% change in serum from control Cholesterol” value ([1]; dose 25 mg/kg/day) was 0% and the “% change in serum from control Triglyceride” value ([1]; dose 25 mg/kg/day) was 0%. The “% change in serum from control Cholesterol” value ([1]; dose 50 mg/kg/day) was 0%, the “% change in serum from control Triglyceride” value ([1]; dose 50 mg/kg/day) was −31% and the “% change in serum from control Cholesterol” value ([1]; dose 100 mg/kg/day) was 0%. The “% change in serum from control Triglyceride” value ([1]; dose 100 mg/kg/day) was −33%, the “% change in serum from control Cholesterol” value ([1]; dose 200 mg/kg/day) was −28% and the “% change in serum from control Triglyceride” value ([1]; dose 200 mg/kg/day) was −40%.

With COc1ccc(-c2ccccc2C(=O)O)cc1 [OCH3, 2-(4-Methoxyphenyl)-benzoic acid] the Cholesterol lowering [1] was “M” and the Triglyceride lowering [1] was “A”.

With CC(C)c1ccc(-c2ccccc2C(=O)O)cc1 [I C3H7, 2-(4-isoPropylphenyl)-benzoic acid] the Cholesterol lowering [1] was “A” and the Triglyceride lowering [1] was “A”.
